Molecular target: T1, p300 (Homo sapiens, UniProt Q09472)
T1 construct: host or cells: A549 P300 HiBit cells
Assay: P300 degradation, HiBit technology in A549 P300 HiBit cells (2 h)
Assay type: cell-based
Conditions: 2 hrs post treatment; for Dmax: A549, A549 P300 HiBit cells; for DC50: A549 P300 HiBit cells
Method: p300 and CBP degradation potency and Dmax were determined using in cell western (ICW) assay technology in H1299 cells or HiBit technology in A549 HiBit cells.
A549 P300 HiBit and A549 CBP HiBit cells were plated in separate 384-well, TC treated, white-opaque, flat-bottomed microplate. Cells were plated at a cell density of 0.2×10^4 cells per well in assay media comprised of F-12K, 10% heat inactivated FBS, and 1% penicillin/streptomycin. Assay microplates containing HiBit cells were placed in a 37° C., 5% CO2, tissue culture incubator and left to equilibrate overnight. The next day cells were treated with serial dilutions of test compound made up of 10 mM stock solutions in DMSO. 384-Well plates containing treated cells were then placed back into a 37° C., 5% CO2, tissue culture incubator. Assay microplates containing A549 P300 HiBit cells were incubated for 2 hrs post treatment before P300 destruction was assessed, while microplates containing A549 CBP HiBit cells were incubated for 24 hrs post treatment before CBP destruction was determined. On the day of each assay time point, microplates were removed from the tissue culture incubator and prepared HiBit Lytic detection buffer (Promega, cat #N3O40) was added to each plate. Plates were covered with aluminum foil and incubated for ten minutes at room temperature on an orbital shaker. After incubation, luminescent signal of each plate was measured using the Envision instrument (Perkin Elmer).

T1 sequence (Q09472 whole entry): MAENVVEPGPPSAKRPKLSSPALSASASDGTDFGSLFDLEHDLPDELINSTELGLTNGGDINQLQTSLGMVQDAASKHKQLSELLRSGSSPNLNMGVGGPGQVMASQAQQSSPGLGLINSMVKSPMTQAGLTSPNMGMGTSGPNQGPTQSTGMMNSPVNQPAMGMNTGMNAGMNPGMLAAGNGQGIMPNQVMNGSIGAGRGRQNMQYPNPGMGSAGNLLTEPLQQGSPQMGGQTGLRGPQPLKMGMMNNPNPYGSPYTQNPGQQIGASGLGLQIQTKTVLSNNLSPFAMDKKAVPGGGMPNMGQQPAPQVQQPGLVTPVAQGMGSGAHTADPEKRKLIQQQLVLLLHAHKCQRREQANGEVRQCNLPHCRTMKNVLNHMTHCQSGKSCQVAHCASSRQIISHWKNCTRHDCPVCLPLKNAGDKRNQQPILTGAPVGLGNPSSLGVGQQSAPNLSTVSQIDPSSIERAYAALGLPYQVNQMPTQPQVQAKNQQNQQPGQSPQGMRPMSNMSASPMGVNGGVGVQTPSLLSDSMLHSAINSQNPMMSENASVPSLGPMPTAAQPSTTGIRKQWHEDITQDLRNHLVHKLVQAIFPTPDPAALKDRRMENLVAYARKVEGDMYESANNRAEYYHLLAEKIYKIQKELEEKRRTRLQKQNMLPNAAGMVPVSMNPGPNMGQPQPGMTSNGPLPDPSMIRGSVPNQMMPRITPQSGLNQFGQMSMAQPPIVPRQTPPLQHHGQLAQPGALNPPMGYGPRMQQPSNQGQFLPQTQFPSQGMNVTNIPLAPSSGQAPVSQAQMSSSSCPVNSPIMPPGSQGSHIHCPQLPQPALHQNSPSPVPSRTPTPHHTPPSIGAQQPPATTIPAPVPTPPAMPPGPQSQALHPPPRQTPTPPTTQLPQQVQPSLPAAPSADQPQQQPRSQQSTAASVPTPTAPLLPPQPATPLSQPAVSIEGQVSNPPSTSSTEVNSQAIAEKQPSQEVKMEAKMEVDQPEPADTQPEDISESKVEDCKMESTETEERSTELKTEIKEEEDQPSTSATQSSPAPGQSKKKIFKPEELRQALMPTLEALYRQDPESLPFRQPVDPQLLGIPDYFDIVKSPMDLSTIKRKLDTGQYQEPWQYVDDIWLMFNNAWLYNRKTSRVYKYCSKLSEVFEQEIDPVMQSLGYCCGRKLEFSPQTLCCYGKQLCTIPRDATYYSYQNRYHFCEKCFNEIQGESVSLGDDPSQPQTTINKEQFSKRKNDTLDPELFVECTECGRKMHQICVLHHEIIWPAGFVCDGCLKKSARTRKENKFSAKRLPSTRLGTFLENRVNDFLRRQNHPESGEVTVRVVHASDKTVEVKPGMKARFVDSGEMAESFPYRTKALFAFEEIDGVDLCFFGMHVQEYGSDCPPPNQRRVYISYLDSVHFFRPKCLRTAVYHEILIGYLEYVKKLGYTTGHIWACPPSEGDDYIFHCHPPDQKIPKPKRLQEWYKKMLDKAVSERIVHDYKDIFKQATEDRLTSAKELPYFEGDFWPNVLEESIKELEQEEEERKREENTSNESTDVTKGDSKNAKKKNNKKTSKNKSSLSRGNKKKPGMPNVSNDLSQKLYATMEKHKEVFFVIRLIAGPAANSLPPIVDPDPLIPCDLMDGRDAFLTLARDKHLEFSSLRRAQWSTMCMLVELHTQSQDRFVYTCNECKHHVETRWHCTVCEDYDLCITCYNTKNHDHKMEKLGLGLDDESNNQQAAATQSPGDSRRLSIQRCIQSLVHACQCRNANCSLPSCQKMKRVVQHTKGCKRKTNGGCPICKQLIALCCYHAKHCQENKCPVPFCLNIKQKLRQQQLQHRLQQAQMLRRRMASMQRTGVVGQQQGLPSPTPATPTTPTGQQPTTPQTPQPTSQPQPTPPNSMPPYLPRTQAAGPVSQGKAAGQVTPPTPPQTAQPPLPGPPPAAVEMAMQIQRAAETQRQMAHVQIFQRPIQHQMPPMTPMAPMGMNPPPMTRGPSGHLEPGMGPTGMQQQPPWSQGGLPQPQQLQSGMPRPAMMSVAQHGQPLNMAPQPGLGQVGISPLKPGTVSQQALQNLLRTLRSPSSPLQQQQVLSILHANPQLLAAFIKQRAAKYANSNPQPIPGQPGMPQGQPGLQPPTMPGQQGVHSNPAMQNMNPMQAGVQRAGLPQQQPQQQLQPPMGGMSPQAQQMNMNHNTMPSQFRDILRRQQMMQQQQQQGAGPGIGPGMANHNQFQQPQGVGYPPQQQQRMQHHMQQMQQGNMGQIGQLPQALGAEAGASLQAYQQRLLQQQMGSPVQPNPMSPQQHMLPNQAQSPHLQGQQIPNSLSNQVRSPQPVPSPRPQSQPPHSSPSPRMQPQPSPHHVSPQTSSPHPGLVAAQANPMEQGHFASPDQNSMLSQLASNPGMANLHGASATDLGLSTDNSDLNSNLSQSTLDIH

SMILES | Dmax [%] | DC50 [nM]
Cc1cc(-c2ncc(N(C)c3ccc4c(c3)n(C)c(=O)n4C)cn2)cnc1C(=O)NCC#Cc1cc2c(C3CCC(=O)NC3=O)nccc2o1 (stereo not drawn) [Example A192, 5-(5-((1,3-dimethyl-2-oxo-2,3-dihydro-1H-benzo[d]imidazol-5-yl)(methyl)amino)pyrimidin-2-yl)-N-(3-(4-(2,6-dioxopiperidin-3-yl)furo[3,2-c]pyridin-2-yl)prop-2-yn-1-yl)-3-methylpicolinamide] | > 80 | 1 to 9.9
[2H]C([2H])([2H])N(c1cnc(-c2cnc(C(=O)NCC#Cc3ccc4occ(C5CCC(=O)NC5=O)c4c3)c(C)c2)nc1)c1cc(C2CCOCC2)c2c(c1)n(C)c(=O)n2C (stereo not drawn) [Example A82, 5-(5-((1,3-dimethyl-2-oxo-7-(tetrahydro-2H-pyran-4-yl)-2,3-dihydro-1H-benzo [d]imidazol-5-yl) (methyl-d3)amino)pyrimidin-2-yl)-N-(3-(3-(2,6-dioxo-piperidin-3-yl)benzofuran-5-yl)prop-2-yn-1-yl)-3-methylpicolinamide] | > 80 | 1 to 9.9
Cc1cc(-c2ncc(N(C)c3cc(C4CCOCC4)c4c(c3)n(C)c(=O)n4C)s2)cnc1C(=O)NCC#Cc1ccc2occ(C3CCC(=O)NC3=O)c2c1 (stereo not drawn) [Example A149, 5-(5-((1,3-dimethyl-2-oxo-7-(tetrahydro-2H-pyran-4-yl)-2,3-dihydro-1H-benzo[d]imidazol-5-yl)(methyl)amino)thiazol-2-yl)-N-(3-(3-(2,6-dioxopiperidin-3-yl)benzofuran-5-yl)prop-2-yn-1-yl)-3-methylpicolinamide] | < 20 | > 1000
CC(C)c1cc(-c2cccc3cc(-c4ccc(C(=O)NCC#Cc5ccc6ncnc(C7CCC(=O)NC7=O)c6c5)nc4)ncc23)cc2c1n(C)c(=O)n2C (stereo not drawn) [Example A214, N-(3-(4-(2,6-dioxo-piperidin-3-yl)quinazolin-6-yl)prop-2-yn-1-yl)-5-(8-(7-isopropyl-1,3-dimethyl-2-oxo-2,3-dihydro-1H-benzo [d]imidazol-5-yl)isoquinolin-3-yl)picolinamide] | 60 to 79 | 10 to 99
Cc1cc2c(N3CCCc4nc(-c5ccc(C(=O)NCC#Cc6cc7c(C8CCC(=O)NC8=O)cccc7o6)nc5)ncc43)cc(C3CC3)cc2n(C)c1=O (stereo not drawn) [Example B171, 5-(5-(7-cyclopropyl-1,3-dimethyl-2-oxo-1,2-dihydroquinolin-5-yl)-5,6,7,8-tetrahydropyrido [3,2-d]pyrimidin-2-yl)-N-(3-(4-(2,6-dioxo-piperidin-3-yl)benzofuran-2-yl)prop-2-yn-1-yl)picolinamide] | > 80 | 1 to 9.9
Cn1c(=O)n(C)c2c(F)cc(N3CCOc4nc(-c5ccc(C(=O)NCC#Cc6cc7c(C8CCC(=O)NC8=O)cccc7o6)nc5)ncc43)cc21 (stereo not drawn) [Example A265, N-(3-(4-(2,6-dioxo-piperidin-3-yl)benzofuran-2-yl)prop-2-yn-1-yl)-5-(5-(7-fluoro-1,3-dimethyl-2-oxo-2,3-dihydro-1H-benzo[d]imidazol-5-yl)-6,7-dihydro-5H-pyrimido[4,5-b][1,4]oxazin-2-yl)picolinamide] | 20 to 39 | 10 to 99
Cc1cc(-c2ccc(N(C)c3cc(C(C)C)c4c(c3)n(C)c(=O)n4C)cc2)cnc1C(=O)NCC#Cc1cccc(NC2CCC(=O)NC2=O)c1 (stereo not drawn) [Example A43, N-(3-(3-((2,6-dioxopiperidin-3-yl)amino)phenyl)prop-2-yn-1-yl)-5-(4-((7-isopropyl-1,3-dimethyl-2-oxo-2,3-dihydro-1H-benzo [d]imidazol-5-yl) (methyl)amino)phenyl)-3-methylpicolinamide] | 60 to 79 | 100 to 999
Cc1cc(-c2ncc(N(C)c3cc4c(c(C(C)C)n3)n(C)c(=O)n4C)cn2)cnc1C(=O)NCC#Cc1ccc2occ(C3CCC(=O)NC3=O)c2c1 (stereo not drawn) [Example A74, N-(3-(3-(2,6-dioxopiperidin-3-yl)benzofuran-5-yl)prop-2-yn-1-yl)-5-(5-((4-isopropyl-1,3-dimethyl-2-oxo-2,3-dihydro-1H-imidazo[4,5-c]pyridin-6-yl)(methyl)amino)pyrimidin-2-yl)-3-methylpicolinamide] | < 20 | > 1000
CCc1cc(N2CCCc3nc(-c4ccc(C(=O)NCC#Cc5ccc6occ(C7CCC(=O)NC7=O)c6c5)nc4)ncc32)c2cc(C)c(=O)n(C)c2c1 (stereo not drawn) [Example B43, N-(3-(3-(2,6-dioxopiperidin-3-yl)benzofuran-5-yl)prop-2-yn-1-yl)-5-(5-(7-ethyl-1,3-dimethyl-2-oxo-1,2-dihydroquinolin-5-yl)-5,6,7,8-tetrahydropyrido[3,2-d]pyrimidin-2-yl) picolinamide] | > 80 | 1 to 9.9
Cn1c(=O)n(C)c2cc(N3CCOc4nc(-c5ccc(C(=O)NCC#Cc6ccc7nnn(C8CCC(=O)NC8=O)c7c6)nc5)ncc43)ccc21 (stereo not drawn) [Example A190, 5-(5-(1,3-dimethyl-2-oxo-2,3-dihydro-1H-benzo[d]imidazol-5-yl)-6,7-dihydro-5H-pyrimido[4,5-b][1,4]oxazin-2-yl)-N-(3-(1-(2,6-dioxopiperidin-3-yl)-1H-benzo[d] [1,2,3]triazol-6-yl)prop-2-yn-1-yl)picolinamide] | 60 to 79 | 1 to 9.9
Cc1cc2c(N3CCCc4nc(-c5ccc(C(=O)NCC#Cc6cc7c(C8CCC(=O)NC8=O)cccn7n6)nc5)ncc43)cc(C3CCOCC3)cc2n(C)c1=O (stereo not drawn) [Example B170, 5-(5-(1,3-dimethyl-2-oxo-7-(tetrahydro-2H-pyran-4-yl)-1,2-dihydroquinolin-5-yl)-5,6,7,8-tetrahydropyrido[3,2-d]pyrimidin-2-yl)-N-(3-(4-(2,6-dioxopiperidin-3-yl)pyrazolo[1,5-a]pyridin-2-yl)prop-2-yn-1-yl)picolinamide] | 20 to 39 | 1 to 9.9
CC(C)c1cc(-c2cccc3cc(-c4ccc(C(=O)NCC#Cc5cc(C#N)c6occ(C7CCC(=O)NC7=O)c6c5)nc4)ncc23)cc2c1n(C)c(=O)n2C (stereo not drawn) [Example A233, N-(3-(7-cyano-3-(2,6-dioxopiperidin-3-yl)benzofuran-5-yl)prop-2-yn-1-yl)-5-(8-(7-isopropyl-1,3-dimethyl-2-oxo-2,3-dihydro-1H-benzo [d]imidazol-5-yl)isoquinolin-3-yl)picolinamide] | 40 to 59 | 10 to 99
CC(C)c1cc(-c2cccc3cc(-c4ccc(C(=O)NCC#Cc5ccc6c(C(F)F)nn(C7CCC(=O)NC7=O)c6c5)nc4)ncc23)cc2c1n(C)c(=O)n2C (stereo not drawn) [Example A31, N-(3-(3-(Difluoromethyl)-1-(2,6-dioxopiperidin-3-yl)-1H-indazol-6-yl)prop-2-yn-1-yl)-5-(8-(7-isopropyl-1,3-dimethyl-2-oxo-2,3-dihydro-1H-benzo[d]imidazol-5-yl)isoquinolin-3-yl)picolinamide] | 20 to 39 | 1 to 9.9
Cc1cc2c(N3CCOc4cc(-c5ccc(C(=O)NCC#Cc6ccc7occ(C8CCC(=O)NC8=O)c7c6)nc5)c(F)cc43)cccc2n(C)c1=O (stereo not drawn) [Example B145, 5-(4-(1,3-dimethyl-2-oxo-1,2-dihydroquinolin-5-yl)-6-fluoro-3,4-dihydro-2H-benzo[b][1,4]oxazin-7-yl)-N-(3-(3-(2,6-dioxopiperidin-3-yl)benzofuran-5-yl)prop-2-yn-1-yl) picolinamide] | > 80 | 1 to 9.9
CC(C)c1cc(-c2ncc(N(C)c3cc(C(C)C)c4c(c3)n(C)c(=O)n4C)cn2)cnc1C(=O)NCC#Cc1ccc2occ(C3CCC(=O)NC3=O)c2c1 (stereo not drawn) [Example A71, N-(3-(3-(2,6-dioxopiperidin-3-yl)benzofuran-5-yl)prop-2-yn-1-yl)-3-isopropyl-5-(5-((7-isopropyl-1,3-dimethyl-2-oxo-2,3-dihydro-1H-benzo[d]imidazol-5-yl)(methyl)amino)pyrimidin-2-yl)picolinamide] | > 80 | 1 to 9.9
Cc1cc(-n2ccc(N(C)c3cc(C(C)C)c4c(c3)n(C)c(=O)n4C)cc2=O)cnc1C(=O)NCC#Cc1cccc(NC2CCC(=O)NC2=O)c1 (stereo not drawn) [Example A42, N-(3-(3-((2,6-dioxopiperidin-3-yl)amino)phenyl)prop-2-yn-1-yl)-4-((7-isopropyl-1,3-dimethyl-2-oxo-2,3-dihydro-1H-benzo [d]imidazol-5-yl)(methyl)amino)-5′-methyl-2-oxo-2H-[1,3′-bipyridine]-6′-carboxamide] | > 80 | 1 to 9.9
Cc1cc(-c2ccc(N(C)c3cc(C(C)C)c4c(c3)n(C)c(=O)n4C)cn2)cnc1C(=O)NCC#Cc1ccc2occ(C3CCC(=O)NC3=O)c2c1 (stereo not drawn) [Example A141, N-(3-(3-(2,6-dioxo-piperidin-3-yl)benzofuran-5-yl)prop-2-yn-1-yl)-5-((7-isopropyl-1,3-dimethyl-2-oxo-2,3-dihydro-1H-benzo [d]imidazol-5-yl)(methyl)amino)-5′-methyl-[2,3′-bipyridine]-6′-carboxamide] | > 80 | 1 to 9.9
Cn1c(=O)n(C)c2cc(N3CCCc4nc(-c5ccc(C(=O)NCC#Cc6ccc7occ(C89CC(C8)C(=O)NC9=O)c7c6)nc5)ncc43)ccc21 [Example A215, 5-(5-(1,3-dimethyl-2-oxo-2,3-dihydro-1H-benzo[d]imidazol-5-yl)-5,6,7,8-tetrahydropyrido[3,2-d]pyrimidin-2-yl)-N-(3-(3-(2,4-dioxo-3-azabicyclo[3.1.1]heptan-1-yl)benzofuran-5-yl)prop-2-yn-1-yl)picolinamide] | 60 to 79 | 10 to 99

— patent publication US20250114345A1, “COMPOUNDS AND COMPOSITIONS AS CBP/P300 DEGRADERS AND USES THEREOF” (Oncopia Therapeutics, Inc. d/b/a/ SK Life Science Labs, priority 2023, published 2025)
